According to article PMC9792171, “Design and synthesis of new thiazolidinone/uracil derivatives as antiproliferative agents targeting EGFR and/or BRAF^V600E” (Frontiers in Chemistry, 2022):

How the values were obtained:
[1] = system: HT-29 (colon cancer cell line); experiment: Antiproliferative MTT assay, HT-29; type: cell-based; conditions: Homo sapiens; HT-29, MTT; read-out: Antiproliferative activity IC50 ± SEM (nM) HT-29
Description: (§1) Using the MTT assay ([Abdelrahman et al., 2017]; [El-Sherief et al., 2018]) and doxorubicin as the reference drug, 3a-f and 5a-l were tested for antiproliferative activity against four human cancer cell lines: Panc-1 (pancreas cancer cell line), MCF-7 (breast cancer cell line), HT-29 (colon cancer cell line), and A-549 (epithelial cancer cell line).
(§2) To explore the antiproliferative potential of compounds MTT assay was performed according to previously reported procedure (El-Sherief, H.A.M., et al., 2018; Abdelrahman, M. H., et al., 2017) using different cell lines to explore the antiproliferative potential of compounds propidium iodide fluorescence assay was performed using different cell lines. To calculate the total nuclear DNA, a fluorescent dye (propidium iodide, PI) is used which can attach to the DNA, thus offering a quick and precise technique. PI cannot pass through the cell membrane and its signal intensity can be considered as directly proportional to quantity of cellular DNA. Cells whose cell membranes are damaged or have changed permeability are counted as dead ones. The assay was performed by seeding the cells of different cell lines at a density of 3000-7500 cells/well (in 200µl medium) in culture plates followed by incubation for 24h at 37 °C in humidified 5% CO2/95% air atmospheric conditions. The medium was removed; the compounds were added to the plates at 10 µM concentrations (in 0.1% DMSO) in triplicates, followed by incubation for 48 h. DMSO (0.1%) was used as control. After incubation, medium was removed followed by the addition of PI (25 µl, 50µg/mL in water/medium) to each well of the plates. At -80 °C, the plates were allowed to freeze for 24 h, followed by thawing at 25 °C. A fluorometer (Polar-Star BMG Tech) was used to record the readings at excitation and emission wavelengths of 530 and 620 nm for each well. The percentage cytotoxicity of compounds was calculated using the following formula: […]

[2] = system: MCF-7 (breast cancer cell line); experiment: Antiproliferative MTT assay, MCF-7; type: cell-based; conditions: Homo sapiens, MCF7; MCF-7, MTT; read-out: Antiproliferative activity IC50 ± SEM (nM) MCF-7
Description: as §1, §2

[3] = Cell viability assay (MTT), MCF-10A; type: cell-based; conditions: human, MCF-10A mammary gland epithelial cells, MCF-10A cells, incubated 4 days
Description: To test the viability of new compounds, the human mammary gland epithelial (MCF-10A) cell line was used ([Youssif et al., 2019]; [Mahmoud et al., 2022]). MCF-10A cells were incubated with compounds 3a-f and 5a-l for 4 days before being tested for viability using the MTT assay.
MTT assay was carried out to study the effect of compounds on mammary epithelial cells (MCF-10A) (Youssif, B. G. M. et al., 2019; Mahmoud, M. A., et al., 2022). The medium in which cells were propagated contained Dulbecco's modified Eagle's medium (DMEM)/ Ham's F-12 medium (1:1) supplemented with epidermal growth factor (20 ng/mL), hydrocortisone (500 ng/mL), insulin (10 μg/mL), 2 mM glutamine and 10% foetal calf serum. After every 2-3 days, the cells were passaged using trypsin ethylenediamine tetra acetic acid (EDTA). The cells were seeded at a density of 10^4 cells mL^-1 in flat-bottomed culture plates containing 96 wells each. After 24 h, medium was removed from the plates and the compounds in (in 0.1% DMSO) were added (in 200 μL medium to yield a final concentration of 0.1% v/v) to the wells of plates. A single compound was designated with four wells followed by incubation of plates for 96h at 37°C. After incubation, medium was removed completely from the plates followed by addition of MTT (0.4 mg/mL in medium) to each well and subsequent incubation of plates for 3h. MTT (along with the medium) was removed and DMSO (150μL) was added to each well of the culture plates, followed by vortexing and subsequent measurement of absorbance (at 540 nm) using microplate reader. The data are shown as percentage inhibition of proliferation in comparison with controls containing 0.1% DMSO.

[4] = system: Panc-1 (pancreas cancer cell line); experiment: Antiproliferative MTT assay, Panc-1; type: cell-based; conditions: Homo sapiens; Panc-1, MTT; read-out: Antiproliferative activity IC50 ± SEM (nM) Panc-1
Description: as §1, §2

BRAF^V600E = biological target: T1, BRAF^V600E (Mus musculus, UniProt P28028, V585E); experiment: BRAF^V600E inhibitory assay (V600E mutant BRAF kinase assay); type: biochemical; conditions: read-out: BRAF^V600E inhibition IC50 ± SEM
T1 construct: Mouse full-length GST-tagged BRAF^V600E (7.5 ng, Invitrogen, PV3849); GST; purchased Invitrogen PV3849
T1 sequence (P28028 whole entry V585E): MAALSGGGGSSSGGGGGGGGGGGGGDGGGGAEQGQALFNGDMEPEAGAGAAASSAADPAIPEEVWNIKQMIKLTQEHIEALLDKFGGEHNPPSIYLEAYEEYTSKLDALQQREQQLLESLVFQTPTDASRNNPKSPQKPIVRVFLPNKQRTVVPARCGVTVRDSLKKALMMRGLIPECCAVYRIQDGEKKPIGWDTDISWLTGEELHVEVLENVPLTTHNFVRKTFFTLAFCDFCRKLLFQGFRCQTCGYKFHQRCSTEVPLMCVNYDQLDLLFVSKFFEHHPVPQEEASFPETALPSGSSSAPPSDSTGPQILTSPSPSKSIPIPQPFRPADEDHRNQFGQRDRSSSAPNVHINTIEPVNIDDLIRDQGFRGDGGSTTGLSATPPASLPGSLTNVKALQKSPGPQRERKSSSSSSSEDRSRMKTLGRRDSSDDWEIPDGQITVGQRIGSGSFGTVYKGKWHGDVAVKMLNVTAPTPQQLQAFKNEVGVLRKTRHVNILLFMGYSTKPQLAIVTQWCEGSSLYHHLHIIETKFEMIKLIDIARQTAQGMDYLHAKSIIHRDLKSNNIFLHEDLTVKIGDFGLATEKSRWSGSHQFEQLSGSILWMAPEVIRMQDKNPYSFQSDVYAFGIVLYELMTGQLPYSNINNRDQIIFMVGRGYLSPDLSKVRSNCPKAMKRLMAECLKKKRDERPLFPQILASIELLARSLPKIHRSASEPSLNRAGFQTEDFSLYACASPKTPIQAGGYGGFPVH
Description: Mouse full-length GST-tagged BRAF^V600E (7.5 ng, Invitrogen, PV3849) was pre-incubated with drug (1 µL) and assay dilution buffer (4 µL) for 60 min at 25 °C. In assay dilution buffer, a solution (5 µL) containing MgCl2 (30 mM), ATP (200 µM), recombinant human full length (200 ng) […] N-terminal His-tagged MEK1 (Invitrogen) was added to start the assay, subsequent to incubation for 25 min at 25 °C. The assay was stopped using 5X protein denaturing buffer (LDS) solution (5 µL). To further denature the protein, heat (70° C) was applied for 5 min. […] 10 µL of each reaction was loaded into the precast plates and electrophoresis was allowed to proceed. After completion of electrophoresis, the front part of the precast gel plate (holding hot ATP) was cut and afterwards cast-off. The dried gel was developed using a phosphor screen. […] To study the effect of compounds on cell-based pERK1/2 activity in cancer cells, commercially available ELISA kits (Invitrogen) were used according to manufacturer’s instructions.

[5] = system: four human cancer cell lines (A-549, MCF-7, Panc-1, HT-29); experiment: Antiproliferative MTT assay, average of four cancer cell lines (GI50); type: cell-based; conditions: for IC50: Homo sapiens, average of A-549, MCF-7, Panc-1, HT-29
Description: as §1, with “line). […]” for “line).”
as §2

Row | IC50 [1] [nM] | IC50 [2] [nM] | IC50 [4] [nM] | IC50 (BRAF^V600E) [nM] | IC50 [5] [nM] | fold less potent than compound 5j (GI50) ([5]; ratio of GI50 values) [fold] | Compound | viability at 4 days, 50 µM [3] [%]
1 | 2100 ± 200 | 1400 ± 100 | 2100 ± 200 | 148 ± 12 | 1850 | – | COc1cccc(NC(=S)Nc2c[nH]c(=O)[nH]c2=O)c1 [Compound 3c, 1-(2,4-Dioxo-1,2,3,4-tetrahydropyrimidin-5-yl)-3-(3-methoxyphenyl)thiourea] | 89
2 | 1400 ± 100 | 1100 ± 100 | 1400 ± 100 | 93 ± 8 | 1300 | 1.2 | CCOC(=O)/C=C1\S/C(=N\c2c[nH]c(=O)[nH]c2=O)N(c2ccc(C)cc2)C1=O [Compound 5b, (Z)-Ethyl-2-((Z)-2-((2,4-dioxo-1,2,3,4-tetrahydropyrimidin-5-yl)imino)-4-oxo-3-(p-tolyl)thiazolidin-5-ylidene)acetate] | 92
3 | 1800 ± 100 | 1600 ± 100 | 1900 ± 200 | 107 ± 10 | 1700 | – | CCOC(=O)/C=C1\S/C(=N\c2c[nH]c(=O)[nH]c2=O)N(c2cccc(OC)c2)C1=O [Compound 5c, (Z)-Ethyl-2-((Z)-2-((2,4-dioxo-1,2,3,4-tetrahydropyrimidin-5-yl)imino)-3-(3-methoxyphenyl)-4-oxo-thiazolidin-5-ylidene)acetate] | 96
4 | 1700 ± 100 | 1700 ± 100 | 1800 ± 100 | 137 ± 12 | 1650 | – | COC(=O)/C=C1\S/C(=N\c2c[nH]c(=O)[nH]c2=O)N(c2ccc(C)cc2)C1=O [Compound 5h, (Z)-Methyl-2-((Z)-2-((2,4-dioxo-1,2,3,4-tetrahydropyrimidin-5-yl)imino)-4-oxo-3-(p-tolyl)-thiazolidin-5-ylidene)acetate] | 92
5 | 1600 ± 100 | 1000 ± 80 | 1500 ± 100 | 122 ± 12 | 1350 | – | COC(=O)/C=C1\S/C(=N\c2c[nH]c(=O)[nH]c2=O)N(c2cccc(OC)c2)C1=O [Compound 5i, (Z)-Methyl-2-((Z)-2-((2,4-dioxo-1,2,3,4-tetrahydropyrimidin-5-yl)imino)-3-(3-methoxyphenyl)-4-oxothiazolidin-5-ylidene)acetate] | 89
6 | 1200 ± 100 | 900 ± 100 | 1200 ± 100 | 115 ± 12 | 1100 | – | COC(=O)/C=C1\S/C(=N\c2c[nH]c(=O)[nH]c2=O)N(Cc2ccccc2)C1=O [Compound 5j, (Z)-Methyl-2-((Z)-3-benzyl-2-((2,4-dioxo-1,2,3,4-tetrahydropyrimidin-5-yl)imino)-4-oxothiazolidin-5-ylidene)acetate] | 89
